Measured values as given in patent US20250049970A1, “DLL3 TARGETING PEPTIDES AND CONSTRUCTS THEREOF” (MARIANA ONCOLOGY INC., priority 2023, published 2025).
*1 amine or outer side, *2 acyl side, *3 side chain or, on linkers, in order; H or OH if unused. Where a SMILES comes first, the peptide text is derived from it. Bridges are numbered along the chain shown (N, C = ends). [ ]: non-standard residue; d: D form. The star is where a group is joined. ξ: configuration not given here. Ala(piperidin-4-yl) = O=C([C@H](CC1CCN([*:3])CC1)N[*:1])[*:2]; DOTA = O=C(O)CN1CCN(CC(=O)O)CCN(CC(=O)*)CCN(CC(=O)O)CC1; Trp(7-OMe) = COc1cccc2c(C[C@H](N)C(=O)O)c[nH]c12; Trp(7-Me) = Cc1cccc2c(C[C@H](N)C(=O)O)c[nH]c12; 2Nal = N[C@@H](Cc1ccc2ccccc2c1)C(=O)O; Gly(4-THP) = N[C@H](C(=O)O)C1CCOCC1; NMeN = CN[C@@H](CC(N)=O)C(=O)O; Chg = N[C@H](C(=O)O)C1CCCCC1; CH2 = C([*:1])[*:2]; ξP = O=C(O)C1CCCN1

target: T1, DLL3 (Homo sapiens, UniProt Q9NYJ7); experiment: SPR KD, biotinylated human DLL3 on streptavidin chip (Table 8); set-up: biotin (biotinylated); conditions: biotinylated human DLL3 on streptavidin sensor chip, 25° C., 1:1 binding model; read-out: SPR KD
T1 sequence (Q9NYJ7 27-618): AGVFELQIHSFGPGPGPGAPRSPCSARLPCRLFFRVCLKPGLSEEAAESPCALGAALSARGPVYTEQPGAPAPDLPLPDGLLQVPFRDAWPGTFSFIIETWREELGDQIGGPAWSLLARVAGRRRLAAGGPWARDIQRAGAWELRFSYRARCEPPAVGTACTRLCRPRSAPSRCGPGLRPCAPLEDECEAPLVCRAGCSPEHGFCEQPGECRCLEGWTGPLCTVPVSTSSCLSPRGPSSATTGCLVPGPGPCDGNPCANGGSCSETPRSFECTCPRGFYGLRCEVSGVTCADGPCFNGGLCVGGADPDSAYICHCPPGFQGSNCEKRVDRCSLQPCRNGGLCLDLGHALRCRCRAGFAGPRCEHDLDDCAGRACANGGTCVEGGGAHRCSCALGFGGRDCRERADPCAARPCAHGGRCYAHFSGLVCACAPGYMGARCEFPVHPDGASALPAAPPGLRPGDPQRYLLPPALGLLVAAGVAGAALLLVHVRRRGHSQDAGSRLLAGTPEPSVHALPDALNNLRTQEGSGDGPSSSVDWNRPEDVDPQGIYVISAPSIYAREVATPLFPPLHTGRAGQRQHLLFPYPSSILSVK
Text: Biotinylated target ligand human DLL3 was immobilized on a streptavidin sensor chip. A reference surface was set up for nonspecific binding and refractive index changes. […] Sensorgram curves were fitted with 1:1 binding model, and affinity and kinetic parameters were obtained using Biacore Insight evaluation 4.0. software.

Row | Kd [nM] | Compound
1 | < 1 | CC(=O)N[C@@H](Cc1c[nH]c2c(C)cccc12)C(=O)N[C@H](C(=O)N[C@H](C(=O)N[C@H]1CSSC[C@@H](C(=O)N[C@@H](Cc2c[nH]c3ccccc23)C(=O)N2CCC[C@H]2C(N)=O)NC(=O)[C@H](CC(=O)O)NC(=O)[C@H](CCCCNC(=O)CN2CCN(CC(=O)O)CCN(CC(=O)O)CCN(CC(=O)O)CC2)NC(=O)[C@H](Cc2ccc3ccccc3c2)NC(=O)[C@H](CC(N)=O)NC(=O)[C@H](CC2CCNCC2)NC1=O)C1CCCCC1)[C@@H](C)O [compound 404, Ac-(7Me-Trp)-T-(Chg)-C(3)-[3-(4-piperidinyl)-Ala]-N-(2Nal)-Lys(DOTA)-D-C(3)-W-P-CONH2] (Ac-[Trp(7-Me)]T[Chg]C[Ala(piperidin-4-yl)]N[2Nal]K(DOTA)DCWP-NH2; disulfide 4-10)
2 | 10 to 100 | CC[C@H](C)[C@H](NC(=O)[C@@H](NC(=O)[C@H](Cc1c[nH]c2ccccc12)NC(C)=O)[C@@H](C)O)C(=O)N[C@H]1CSSC[C@@H](C(=O)N[C@@H](Cc2c[nH]c3ccccc23)C(=O)N2CCC[C@H]2C(=O)O)NC(=O)[C@H](CC(=O)O)NC(=O)[C@H](Cc2c[nH]cn2)NC(=O)[C@H](Cc2c[nH]c3ccccc23)NC(=O)[C@H](CC(=O)O)NC(=O)[C@H](CC(N)=O)N(C)C1=O [compound 384, Ac-W-T-I-C(3)-(NmeN)-N-W-H-D-C(3)-W-P-CONH2] (Ac-WTIC[NMeN]DWHDCWP-OH; disulfide 4-10)
3 | 1 to 10 | CC(=O)N[C@@H](Cc1c[nH]c2ccccc12)C(=O)N[C@H](C(=O)N[C@H](C(=O)N[C@H]1CSSC[C@@H](C(=O)N[C@@H](Cc2c[nH]c3ccccc23)C(=O)N2CCC[C@H]2C(N)=O)NC(=O)[C@H](CC(=O)O)NC(=O)[C@H](Cc2cnc[nH]2)NC(=O)[C@H](Cc2c[nH]c3ccccc23)NC(=O)[C@H](CC(N)=O)NC(=O)[C@H](CC(N)=O)NC1=O)C1CCOCC1)[C@@H](C)O [compound 338, Ac-W-T-(THPG)-C(3)-N-N-W-H-D-C(3)-W-P-CONH2] (Ac-WT[Gly(4-THP)]CNNWHDCWP-NH2; disulfide 4-10)
4 | < 1 | COc1cccc2c(C[C@H](NC(C)=O)C(=O)N[C@H](C(=O)N[C@H](C(=O)N[C@H]3CSCSC[C@@H](C(=O)N[C@@H](Cc4c[nH]c5ccccc45)C(=O)N4CCCC4C(N)=O)NC(=O)[C@H](CC(=O)O)NC(=O)[C@H](CCCCNC(=O)CN4CCN(CC(=O)O)CCN(CC(=O)O)CCN(CC(=O)O)CC4)NC(=O)[C@H](Cc4ccc5ccccc5c4)NC(=O)[C@H](CC(N)=O)NC(=O)[C@H](CC4CCNCC4)NC3=O)C3CCCCC3)[C@@H](C)O)c[nH]c12 (stereo partly drawn) [compound 430, Ac-(7MeO-Trp)-T-(Chg)-C(1)-[3-(4-piperidinyl)-Ala]-N-(2Nal)-Lys(DOTA)-D-C(1)-W-P-CONH2] (Ac-[Trp(7-OMe)]T[Chg]C[Ala(piperidin-4-yl)]N[2Nal]K(DOTA)DCW[ξP]-NH2; linker 4-10 via CH2)
5 | 10 to 100 | CC[C@H](C)[C@H](NC(=O)[C@@H](NC(=O)[C@H](Cc1c[nH]c2ccccc12)NC(C)=O)[C@@H](C)O)C(=O)N[C@H]1CSSC[C@@H](C(=O)N[C@@H](Cc2c[nH]c3ccccc23)C(=O)N2CCC[C@H]2C(=O)O)NC(=O)[C@H](CC(=O)O)NC(=O)[C@H](Cc2c[nH]cn2)NC(=O)[C@H](Cc2c[nH]c3ccccc23)NC(=O)[C@H](CC(N)=O)N(C)C(=O)[C@H](CC(N)=O)NC1=O [compound 385, Ac-W-T-I-C(3)-N-(NmeN)-W-H-D-C(3)-W-P-CONH2] (Ac-WTICN[NMeN]WHDCWP-OH; disulfide 4-10)
